This note sets out measurements from PubChem BioAssay AID292 (DTP/NCI, 2004).

For this test, the system named is B6C3F1 mice, ip Sarcoma M5076, median survival T/C. The experiment in a line: NCI In Vivo Anticancer Drug Screen. Data for tumor model Sarcoma M5076 (intraperitoneal) in B6C3F1 mice. The following applies: endpoint: median survival time, higher = longer survival. The gist of the method:
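Antitumour effect is judged in tumour-bearing mice by comparing survival after compound dosing against vehicle-only animals, reported as T/C.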

The mark [1] stands for this setting: dose: 50.0 mg/kg/injection, schedule: Q04DX004 (ip), vehicle: Klucel (hydroxypropylcellulose) (HPC).
[2] abbreviates: dose: 100.0 mg/kg/injection, schedule: Q04DX004 (ip), vehicle: Klucel (hydroxypropylcellulose) (HPC).
[3] abbreviates: dose: 200.0 mg/kg/injection, schedule: Q04DX004 (ip), vehicle: Klucel (hydroxypropylcellulose) (HPC).
Setting [4] is: dose: 400.0 mg/kg/injection, schedule: Q04DX004 (ip), vehicle: Klucel (hydroxypropylcellulose) (HPC).
[5] abbreviates: dose: 12.5 mg/kg/injection, schedule: Q04DX004 (ip), vehicle: saline with Tween-80.
[6] abbreviates: dose: 25.0 mg/kg/injection, schedule: Q04DX004 (ip), vehicle: saline with Tween-80.
[7] abbreviates: dose: 50.0 mg/kg/injection, schedule: Q04DX004 (ip), vehicle: saline with Tween-80.
Where [8] appears, read: dose: 25.0 mg/kg/injection, schedule: Q04DX004 (ip), vehicle: Klucel (hydroxypropylcellulose) (HPC).
The mark [9] stands for this setting: dose: 100.0 mg/kg/injection, schedule: Q04DX004 (ip), vehicle: saline with Tween-80.
Setting [10] is: dose: 200.0 mg/kg/injection, schedule: Q04DX004 (ip), vehicle: saline with Tween-80.
[11] abbreviates: dose: 400.0 mg/kg/injection, schedule: Q04DX004 (ip), vehicle: saline with Tween-80.

Where “and” joins values, the source holds several entries; their conditions need not be identical. Equal entries are not always repeated. Toxic doses and inconclusive results are not listed.

With `N#CC1C(=O)NC(=S)NC1c1ccccc1` (stereo unspecified), the T/C reads like this: under setting [1], 97 % of control; under setting [2], 101 % of control; under setting [3], 97 % of control; under setting [4], 100 % of control.
With `O=C1NC(=O)N(c2ccc(Cl)c(Cl)c2)C1=O`, the T/C under setting [1] was 93 % of control, the T/C under setting [2] was 95 % of control, the T/C under setting [3] was 92 % of control and the T/C under setting [4] was 89 % of control.
With `OC1(c2cccc(Cl)c2)C2=NCCCN2c2ccccc21` (stereo unspecified), the T/C by setting is: (dose: 6.25 mg/kg/injection, schedule: Q04DX004 (ip), vehicle: saline with Tween-80) 102 % of control; under setting [5], 103 % of control; under setting [6], 100 % of control; under setting [7], 99 % of control.
Turning to `CC1(CO)C(O)CCC2(C)C1CCC1CC3CC12CCC3(O)CO` (stereo unspecified), the T/C is 120 % of control (dose: 51.8 mg/kg/injection, schedule: Q04DX005 (ip), vehicle: Klucel (hydroxypropylcellulose) (HPC)); 120 % of control (dose: 86.4 mg/kg/injection, schedule: Q04DX004 (ip), vehicle: Klucel (hydroxypropylcellulose) (HPC)); 124 % of control (dose: 86.4 mg/kg/injection, schedule: Q04DX005 (ip), vehicle: Klucel (hydroxypropylcellulose) (HPC)); 116 % of control (dose: 144.0 mg/kg/injection, schedule: Q04DX004 (ip), vehicle: Klucel (hydroxypropylcellulose) (HPC)); 123 % of control (dose: 144.0 mg/kg/injection, schedule: Q04DX005 (ip), vehicle: Klucel (hydroxypropylcellulose) (HPC)); 122 % of control (dose: 240.0 mg/kg/injection, schedule: Q04DX005 (ip), vehicle: Klucel (hydroxypropylcellulose) (HPC)). Moreover, the T/C under setting [4] was 151 % of control and 164 % of control.
Consider `C/C(=N\NC(=S)N1CCN(c2ccccn2)CC1)c1ccccn1`, for which the T/C is 98 % of control (dose: 12.5 mg/kg/injection, schedule: Q04DX004 (ip), vehicle: Klucel (hydroxypropylcellulose) (HPC)); 103 % of control under setting [8]; 93 % of control under setting [1].
Regarding `CC1=NN(c2ccccc2)C(=O)C1=Nc1c(C)[nH]n(-c2ccccc2)c1=O`, the T/C runs as follows: under setting [7], 89 % of control; under setting [9], 92 % of control; under setting [10], 97 % of control; under setting [11], 94 % of control.
For `COc1cc2c(c3c1c(=O)c1ccccc1n3C)C=CC(C)(C)O2`, the T/C is 112 % of control under setting [5]; 121 % of control under setting [6]; 110 % of control (dose: 166.7 mg/kg/injection, schedule: Q04DX004 (ip), vehicle: saline with Tween-80).
Take `Cc1cc(C(F)(F)F)nc2nc3ccccc3n12`: the T/C is 100 % of control (dose: 37.5 mg/kg/injection, schedule: Q04DX004 (ip), vehicle: Klucel (hydroxypropylcellulose) (HPC)); 95 % of control (dose: 75.0 mg/kg/injection, schedule: Q04DX004 (ip), vehicle: Klucel (hydroxypropylcellulose) (HPC)); 96 % of control (dose: 150.0 mg/kg/injection, schedule: Q04DX004 (ip), vehicle: Klucel (hydroxypropylcellulose) (HPC)); 95 % of control (dose: 300.0 mg/kg/injection, schedule: Q04DX004 (ip), vehicle: Klucel (hydroxypropylcellulose) (HPC)).
`O=C1NC2(CCCCC2)C(=O)N1CCN(CCCl)CCCl`: the T/C is, setting by setting: (dose: 0.75 mg/kg/injection, schedule: Q01DX009 (ip), vehicle: saline with Tween-80) 111 % of control; (dose: 1.5 mg/kg/injection, schedule: Q01DX009 (ip), vehicle: saline with Tween-80) 113 % of control; (dose: 7.2 mg/kg/injection, schedule: Q01DX009 (ip), vehicle: saline with Tween-80) 154 % of control; (dose: 12.0 mg/kg/injection, schedule: Q01DX009 (ip), vehicle: saline with Tween-80) 166 % of control and 176 % of control; (dose: 20.0 mg/kg/injection, schedule: Q01DX009 (ip), vehicle: saline with Tween-80) 244 % of control.
Consider `OC1(c2ccccc2)c2ccccc2NC2=NCCN21` (stereo unspecified), for which the T/C under setting [6] was 95 % of control and the T/C under setting [7] is 96 % of control.
`Clc1cc2c(nn1)Nc1ccccc1S2`: the T/C is, setting by setting: under setting [7], 100 % of control; under setting [9], 95 % of control; under setting [10], 95 % of control.
Consider `Clc1cccc(N(C2=NCCS2)C2=NCCS2)c1`, for which the T/C under setting [1] is 107 % of control; the T/C under setting [2] is 101 % of control; the T/C under setting [3] is 101 % of control; the T/C under setting [4] is 96 % of control; the T/C (dose: 800.0 mg/kg/injection, schedule: Q04DX004 (ip), vehicle: Klucel (hydroxypropylcellulose) (HPC)) was 92 % of control.
Regarding `NC(=O)CCC(N)C(=O)O` (stereo unspecified), the T/C runs as follows: (dose: 3.12 mg/kg/injection, schedule: Q04DX004 (ip), vehicle: saline) 100 % of control; (dose: 6.25 mg/kg/injection, schedule: Q04DX004 (ip), vehicle: saline) 104 % of control and 105 % of control; (dose: 12.5 mg/kg/injection, schedule: Q04DX004 (ip), vehicle: saline) 97 % of control and 99 % of control; (dose: 25.0 mg/kg/injection, schedule: Q04DX004 (ip), vehicle: saline) 98 % of control and 108 % of control; (dose: 50.0 mg/kg/injection, schedule: Q04DX004 (ip), vehicle: saline) 105 % of control and 111 % of control; (dose: 100.0 mg/kg/injection, schedule: Q04DX004 (ip), vehicle: saline) 103 % of control and 124 % of control.
With `COc1ccc(Cl)c2c1[nH]c1nc3nc4cc(Cl)ccc4n3nc12`, the T/C is 91 % of control (dose: 75.0 mg/kg/injection, schedule: Q04DX004 (ip), vehicle: saline with Tween-80) and 90 % of control (dose: 150.0 mg/kg/injection, schedule: Q04DX004 (ip), vehicle: saline with Tween-80).
For `Nc1ncnc2c1c1c(=O)[nH]c(=O)[nH]c1n2C1OC(CO)C(O)C1O` (stereo unspecified), the T/C reads like this: (dose: 50.0 mg/kg/injection, schedule: Q04DX004 (ip), vehicle: distilled water + Tween-80) 106 % of control and 115 % of control; (dose: 100.0 mg/kg/injection, schedule: Q04DX004 (ip), vehicle: distilled water + Tween-80) 117 % of control; (dose: 200.0 mg/kg/injection, schedule: Q04DX004 (ip), vehicle: distilled water + Tween-80) 104 % of control and 108 % of control; (dose: 400.0 mg/kg/injection, schedule: Q04DX004 (ip), vehicle: distilled water + Tween-80) 116 % of control.
For the compound `CC(=O)C1C(=O)C(=O)N(c2ccc(C)cc2C)C1=O` (stereo unspecified), the T/C under setting [1] is 102 % of control and the T/C under setting [2] is 98 % of control.
On to `COc1cc2c(c(OC)c1OC)-c1ccc(OC)c(=O)cc1[C@@H](N)CC2`, for which the T/C (dose: 5.0 mg/kg/injection, schedule: Q04DX004 (ip), vehicle: saline) is 119 % of control; the T/C (dose: 5.0 mg/kg/injection, schedule: Q04DX004 (ip), vehicle: suspension in saline) was 116 % of control; the T/C (dose: 8.6 mg/kg/injection, schedule: Q04DX004 (ip), vehicle: suspension in saline) was 123 % of control; the T/C (dose: 10.0 mg/kg/injection, schedule: Q04DX004 (ip), vehicle: suspension in saline) was 118 % of control; the T/C (dose: 20.0 mg/kg/injection, schedule: Q04DX004 (ip), vehicle: saline) was 152 % of control; the T/C (dose: 24.0 mg/kg/injection, schedule: Q04DX004 (ip), vehicle: suspension in saline) was 123 % of control. In addition, the T/C (dose: 40.0 mg/kg/injection, schedule: Q04DX004 (ip), vehicle: saline) is 157 % of control.
`C=C(C)C1C2CC3(C)C4(CO4)C4OC4C3(O)C1C(=O)O2` (stereo unspecified): the T/C (dose: 0.25 mg/kg/injection, schedule: Q04DX004 (ip), vehicle: Klucel (hydroxypropylcellulose) (HPC)) was 96 % of control; the T/C (dose: 0.5 mg/kg/injection, schedule: Q04DX004 (ip), vehicle: Klucel (hydroxypropylcellulose) (HPC)) is 112 % of control; the T/C (dose: 1.0 mg/kg/injection, schedule: Q04DX004 (ip), vehicle: Klucel (hydroxypropylcellulose) (HPC)) was 100 % of control.
Take `Cn1c2ccccc2c2ccc3c(c21)C(=O)C=CC3=O`: the T/C is 93 % of control under setting [8] and 98 % of control under setting [1].
Turning to `COc1ccccc1C1C(C#N)C(=O)NC(=O)C1C#N` (stereo unspecified), the T/C is 100 % of control under setting [1], 100 % of control under setting [2], 95 % of control under setting [3] and 102 % of control under setting [4].
Turning to `COC1C(CO)OC(n2cnc3c(=S)nc(N)[nH]c32)C1O` (stereo unspecified), the T/C is, setting by setting: under setting [1], 93 % of control; under setting [2], 100 % of control; under setting [3], 105 % of control.
Consider `Cc1c(C(=N)C(C#N)C#N)c(=N)oc2c1ccc1ccccc12`, for which the T/C is, setting by setting: under setting [7], 96 % of control; under setting [9], 96 % of control; under setting [10], 92 % of control; under setting [11], 94 % of control; (dose: 800.0 mg/kg/injection, schedule: Q04DX004 (ip), vehicle: saline with Tween-80) 93 % of control.
